Results: PMC4083273 (Bioscience Reports, 2014)

Tests used:
CobR (corrin reductase) [1] = molecular target: T1, CobR (corrin reductase) (Brucella melitensis, UniProt Q8YHT7); details: reference without excess FAD 70 °C, 50 mM NaPi, 100 mM NaCl pH 6.5, 125°/h, irreversible unfolding
T1 construct: gene BMEI0709

CobR (corrin reductase) [2] = molecular target: T1, CobR (corrin reductase); details: crystals grown with 2 mM FAD, pH 4.6; FAD in both active sites; second site (additional folded FAD per subunit)

T1 sequence (Q8YHT7 1-173): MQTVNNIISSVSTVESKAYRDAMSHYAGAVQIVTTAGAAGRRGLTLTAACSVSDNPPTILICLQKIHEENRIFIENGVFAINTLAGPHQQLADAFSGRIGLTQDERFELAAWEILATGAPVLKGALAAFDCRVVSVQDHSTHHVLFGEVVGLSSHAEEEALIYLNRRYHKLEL

How did the “apparent Tm with excess FAD” value (CobR (corrin reductase) [1]) turn out when `Cc1cc2nc3c(=O)[nH]c(=O)nc-3n(C[C@H](O)[C@H](O)[C@H](O)COP(=O)(O)OP(=O)(O)OC[C@H]3O[C@@H](n4cnc5c(N)ncnc54)[C@H](O)[C@@H]3O)c2cc1C` [FAD] was run?
The value was 80 °C.

What about the “X-ray crystallography, 2.2 Å” value (CobR (corrin reductase) [2]) of the same molecule?
Its value is “FAD is seen occupying both active sites of the homodimer”.
